From ChEMBL document CHEMBL1138627, “1-Methyl and 1-(2-hydroxyalkyl)-5-(3-alkyl/cycloalkyl/phenyl/naphthylureido)-1H-pyrazole-4-carboxylic acid ethyl esters as potent human neutrophil chemotaxis inhibitors” (Bioorg Med Chem, 2009) come the findings set out here.

Data set [1] deals with Neutrophil. The data set can be described thus: Reduction of chemotaxis in human neutrophils assessed as inhibition of fMLP-OMe-induced cell migration pretreated 10 mins before fMLP-OMe challenge. The class given is functional, cell-based.
Data set [2] concerns Neutrophil. The data set can be described thus: Reduction of chemotaxis in human neutrophils assessed as inhibition of IL8-induced cell migration pretreated 10 mins before IL8 challenge. In kind it is functional, cell-based.
Data set [3] can be described thus: Cytotoxicity against human neutrophils assessed as LDH release. In kind it is cell-based. More on the design: concentration or dose not given beside the values. The settings on record: neutrophil.
Data set [4] has as its system Mus musculus. The data set can be described thus: Antiinflammatory activity against zymosan-induced peritonitis in Swiss mouse assessed as inhibition of granulocyte infiltration into peritoneal cavity at 100 mg/kg, po administered 1 hr before zymosan challenge measured after 4 hrs. In kind it is functional.
Data set [5] relates to Mus musculus. The data set can be described thus: Antiinflammatory activity against zymosan-induced peritonitis in Swiss mouse assessed as peritoneal protein concentration at 3 mg/kg, po administered 1 hr before zymosan challenge by spectrophotometry. The class given is functional.
In data set [6] the test system is Mus musculus. Briefly: Antiinflammatory activity against zymosan-induced peritonitis in Swiss mouse assessed as granulocyte content in peritoneal cavity lavage at 3 mg/kg, po administered 1 hr before zymosan challenge measured after 4 hrs. The class given is functional.
Data set [7] relates to Mus musculus. Briefly: Antiinflammatory activity against zymosan-induced peritonitis in Swiss mouse assessed as monocyte and lymphocyte content in peritoneal cavity lavage at 3 mg/kg, po administered 1 hr before zymosan challenge measured after 4 hrs. The class given is functional.
In data set [8] the test system is Mus musculus. The data set can be described thus: Antiinflammatory activity against zymosan-induced peritonitis in Swiss mouse assessed as inhibition of granulocyte infiltration into peritoneal cavity at 3 mg/kg, po administered 1 hr before zymosan challenge measured after 4 hrs. In kind it is functional. More on the design: scale not given: the % may be the effect or the level left.

The test system of data set [9] is Neutrophil. The data set can be described thus: Inhibition of chemotaxis in human neutrophils assessed as reduction of fMLP-OMe-induced cell migration at 10 uM relative to control. The class given is functional.
Data set [10] has as its system Mus musculus. Briefly: Antiinflammatory activity against zymosan-induced peritonitis in Swiss mouse assessed as protein concentration at 50 mg/kg, po administered 1 hr before zymosan challenge by spectrophotometry. The class given is functional.
Data set [11] has as its system Mus musculus. The data set can be described thus: Antiinflammatory activity against zymosan-induced peritonitis in Swiss mouse assessed as inhibition of granulocyte infiltration into peritoneal cavity at 50 mg/kg, po administered 1 hr before zymosan challenge measured after 4 hrs. The class given is functional. More on the design: scale not given: the % may be the effect or the level left.

Data set [12] concerns Mus musculus. Briefly: Antiinflammatory activity against zymosan-induced peritonitis in Swiss mouse assessed as monocyte and lymphocyte content in peritoneal cavity at 50 mg/kg, po administered 1 hr before zymosan challenge measured after 4 hrs. The class given is functional.

Turning to `CCOC(=O)c1cnn(CC(O)CC)c1NC(=O)Nc1ccc(F)cc1` (stereo not drawn), the results for the IC50 in the data set with Neutrophil [1] (read-out: IC50) and in the data set on Neutrophil [2] were 3.2 nM and 1900 pM, respectively. The Activity in data set [3] is on record as under 3%.

Turning to `CCOC(=O)c1cnn(CC(O)c2ccccc2)c1NC(=O)Nc1cccc(F)c1` (stereo not drawn), the inhibition in vivo at 100 mg/kg with Mus musculus [4] came out at 33%.

For the compound `C[C@@H]1C[C@H]2[C@@H]3CCC4=CC(=O)C=C[C@]4(C)[C@@]3(F)[C@@H](O)C[C@]2(C)[C@@]1(O)C(=O)CO` [DEXAMETHASONE], in the data set with Mus musculus [5], the protein concentration worked out at 1.75 µg/mL. Moreover, the Activity with Mus musculus [6] was found to be 81%; in the data set on Mus musculus [7], 20%; with Mus musculus [8], 35%.

Take `CCOC(=O)c1cnn(CC(O)CC)c1NC(=O)Nc1ccccc1F` (stereo not drawn): the IC50 with Neutrophil [1] (read-out: IC50) was found to be 120 nM. For the same compound, the Activity in [3] is under 3%.

On to `CCCC(O)Cn1ncc(C(=O)OCC)c1NC(=O)NC(C)C` (stereo not drawn), for which the IC50 with Neutrophil [1] (read-out: IC50) was 20 nM; in the data set with Neutrophil [2], 1000 pM. Further, the Activity in data set [3] was under 3%.

`CCOC(=O)c1cnn(CC(O)c2ccccc2)c1NC(=O)N1CCN(Cc2ccccc2)CC1` (stereo not drawn): the IC50 in the data set on Neutrophil [2] worked out at 14000 pM.

As to `CCOC(=O)c1cnn(CC(O)CC)c1NC(=O)Nc1cccc(F)c1` (stereo not drawn), the IC50 came out at 0.19 nM in the data set with Neutrophil [1] (read-out: IC50) and 360 pM in the data set with Neutrophil [2]. Moreover, the Activity in data set [3] was under 3%.

Consider `C/C=C/C[C@@H](C)[C@@H](O)[C@H]1C(=O)N[C@@H](CC)C(=O)N(C)CC(=O)N(C)[C@@H](CC(C)C)C(=O)N[C@@H](C(C)C)C(=O)N(C)[C@@H](CC(C)C)C(=O)N[C@@H](C)C(=O)N[C@H](C)C(=O)N(C)[C@@H](CC(C)C)C(=O)N(C)[C@@H](CC(C)C)C(=O)N(C)[C@@H](C(C)C)C(=O)N1C` [CYCLOSPORINE], for which, in the data set on Neutrophil [1], the IC50 was 0.047 nM.

As to `CCOC(=O)c1cnn(CC(O)c2ccccc2)c1NC(=O)NC(C)C` (stereo not drawn), the IC50 in the data set with Neutrophil [2] was 55000 pM.

In the case of `CCOC(=O)c1cnn(CC(O)c2ccccc2)c1NC(=O)NCc1ccccc1` (stereo not drawn), in the data set on Neutrophil [2], the IC50 was determined as 10000 pM.

Consider `CCOC(=O)c1cnn(CC(C)O)c1NC(=O)NCc1ccccc1` (stereo not drawn), for which the figures for the IC50 with Neutrophil [1] (read-out: IC50) and with Neutrophil [2] were 15 nM and 0.54 pM, respectively. For the same compound, the Activity in [3] is given as under 3%.

For `CCOC(=O)c1cnn(C)c1NC(=O)NCc1ccccc1`, the IC50 in the data set with Neutrophil [1] (read-out: IC50) worked out at 18 nM; with Neutrophil [2], 1300 pM. Besides, the Activity in data set [3] is recorded as under 3%.

`CCOC(=O)c1cnn(CC(O)CC)c1NC(=O)NC(C)C` (stereo not drawn): the IC50 in the data set on Neutrophil [1] (read-out: IC50) is over 10 nM. The inhibition at 10 µM in the data set on Neutrophil [9] amounted to 52%. Besides, the Activity in data set [3] is on record as under 3%.

Consider `CCOC(=O)c1cnn(CC(O)CC)c1NC(=O)Nc1cccc2ccccc12` (stereo not drawn), for which the IC50 was 12 nM in the data set on Neutrophil [1] (read-out: IC50) and 9600 pM in the data set on Neutrophil [2]. Further, the Activity in [3] was under 3%.

Consider `CCCC(O)Cn1ncc(C(=O)OCC)c1NC(=O)N1CCN(Cc2ccccc2)CC1` (stereo not drawn), for which the IC50 in the data set with Neutrophil [1] (read-out: IC50) was found to be 1.1 nM; with Neutrophil [2], 90 pM. In addition, the Activity in data set [3] is listed as under 3%.

Take `CCOC(=O)c1cnn(C)c1NC(=O)NC(C)C`: the IC50 in the data set with Neutrophil [1] (read-out: IC50) was found to be 77 nM; in the data set on Neutrophil [2], 1.8 pM. The Activity in data set [3] is under 3%.

For `CCOC(=O)c1cnn(CC(C)O)c1NC(=O)N1CCN(Cc2ccccc2)CC1` (stereo not drawn), the IC50 in the data set on Neutrophil [1] (read-out: IC50) is over 10 nM; in the data set on Neutrophil [2], 0.99 pM. The inhibition at 10 µM with Neutrophil [9] was 63%. Besides, the Activity in [3] is listed as under 3%.

With `CCOC(=O)c1cnn(CC(O)CC)c1NC(=O)N1CCN(Cc2ccccc2)CC1` (stereo not drawn), the 50% inhibitory concentration (IC50) with Neutrophil [1] (read-out: IC50) stood at 2000 nM; with Neutrophil [2], 0.08 pM. Also, in data set [3], the Activity is under 3%.

Turning to `CCOC(=O)c1cnn(CC(C)O)c1NC(=O)NC(C)C` (stereo not drawn), the results for the IC50 with Neutrophil [1] (read-out: IC50) and in the data set with Neutrophil [2] were 90 nM and 0.82 pM, respectively. Also, the Activity in data set [3] is listed as under 3%.

For the compound `CCOC(=O)c1cnn(CC(C)O)c1NC(=O)Nc1ccccc1F` (stereo not drawn), the IC50 with Neutrophil [1] (read-out: IC50) is 100 nM; in the data set with Neutrophil [2] it was 0.55 pM. For the same compound, the protein concentration in the data set on Mus musculus [10] amounted to 2.62 µg/mL. For the same compound, the Activity in data set [3] is reported as under 3%; in the data set on Mus musculus [11], 34%.

`CCOC(=O)c1cnn(CC(O)c2ccccc2)c1NC(=O)Nc1cccc2ccccc12` (stereo not drawn): in the data set on Neutrophil [1] (read-out: IC50), the IC50 turned out to be 7.8 nM. In data set [3], the Activity is reported as under 3%.

Turning to `CCOC(=O)c1cnn(CC(C)O)c1NC(=O)Nc1cccc(F)c1` (stereo not drawn), the values for the IC50 in the data set on Neutrophil [1] (read-out: IC50) and in the data set on Neutrophil [2] were over 10 nM and 0.7 pM, respectively. Further, the inhibition at 10 µM in the data set on Neutrophil [9] turned out to be 60%. Also, the Activity in the data set with Mus musculus [10] was 2.68%; with Mus musculus [12], 23%; in data set [3] it was under 3%; in the data set on Mus musculus [11] it was 21%.

For the compound `CCCC(O)Cn1ncc(C(=O)OCC)c1NC(=O)NCc1ccccc1` (stereo not drawn), the IC50 in the data set with Neutrophil [1] (read-out: IC50) worked out at 0.43 nM. Besides, the Activity in data set [3] is under 3%.

In the case of `CCOC(=O)c1cnn(CC(O)CC)c1NC(=O)NCc1ccccc1` (stereo not drawn), the IC50 in the data set on Neutrophil [1] (read-out: IC50) was over 10 nM. Moreover, the inhibition at 10 µM in the data set on Neutrophil [9] was 54%. The Activity in data set [3] is recorded as under 3%.

Consider `CCOC(=O)c1cnn(C)c1NC(=O)N1CCN(Cc2ccccc2)CC1`, for which the IC50 in the data set with Neutrophil [1] (read-out: IC50) is 150 nM; with Neutrophil [2] it was 54.6 pM. Also, in data set [3], the Activity was under 3%.

`CCOC(=O)c1cnn(CC(C)O)c1NC(=O)Nc1ccc(F)cc1` (stereo not drawn): the results for the IC50 with Neutrophil [1] (read-out: IC50) and in the data set on Neutrophil [2] were over 10 nM and 200 pM, respectively. The inhibition at 10 µM in the data set with Neutrophil [9] turned out to be 55%. Moreover, in [3], the Activity is reported as under 3%.

Regarding `CCOC(=O)c1cnn(CC(C)O)c1NC(=O)Nc1cccc2ccccc12` (stereo not drawn), the IC50 with Neutrophil [1] (read-out: IC50) was found to be 9.8 nM; in the data set on Neutrophil [2], 0.97 pM. The Activity in data set [3] was under 3%.

As to `CCOC(=O)c1cnn(CC(O)c2ccccc2)c1NC(=O)Nc1ccccc1` (stereo not drawn), in the data set with Neutrophil [2], the IC50 turned out to be 45000 pM.
